Measurements published in paper PMC4096222 (Journal of Medicinal Chemistry, 2014).

Legend:
A/M2 S31N = A/M2 S31N (Influenza A virus, UniProt P0DOF5, S31N); type: cell-based, influenza A/Udorn/72; settings: for A/M2 S31N inhibition by 100 μM for 2 min (mean ± SE): pH 5.5
A/PR/8/34 (A/H1N1) = type: cell-based, influenza A virus
A/M2 V27A = A/M2 V27A (Influenza A virus, UniProt P0DOF5, V27A); type: cell-based, influenza A/Udorn/72

Structure (SMILES) | A/M2 S31N inhibition by 100 μM for 2 min (mean ± SE) (A/M2 S31N) [%] | activity against A/PR/8/34 strain (A/PR/8/34 (A/H1N1)) | other results
C1=CC2C3CNCC3C1C1CC21.Cl (stereo not shown) [compound 4, 4-Azatetracyclo[5.3.2.0^2,6.0^8.10]dodec-11-ene Hydrochloride] | 0 |  | 
Cl.N=C(N)N1CC2C3C=CC(C4CC34)C2C1 (stereo not shown) [compound 5, 4-Amidino-4-azatetracyclo[5.3.2.0^2,6.0^8.10]dodec-11-ene Hydrochloride] | 0 |  | 
C1=CC2C3CC3C1C1CN(C3CCNCC3)CC21.Cl (stereo not shown) [compound 8, 4-(4-Piperidinyl)-4-azatetracyclo[5.3.2.0^2,6.0^8.10]dodec-11-ene Dihydrochloride] |  | strong activity | 
C1=CC2C1C1C=CC2C2CNCC12.Cl (stereo not shown) [compound 11, 4-Azatetracyclo[5.4.2.0^2,6.0^8.11]trideca-9,12-diene Hydrochloride] |  | strong activity | 
Cl.N=C(N)N1CC2C3CCC(C4CCC43)C2C1 (stereo not shown) [compound 14, 4-Amidino-4-azatetracyclo[5.4.2.0^2,6.0^8.11]tridecane Hydrochloride] |  |  | activity against V27A M2 mutant channel (A/M2 V27A): fair activity
CC12CC34CNCC35CC1(C)C(C)(C5)C2(C)C4.Cl (stereo not shown) [compound 18, 7,8,9,10-Tetramethyl-3-azapentacyclo[7.2.1.1^5,8.0^1,5.0^7,10]tridecane Hydrochloride] |  | strong activity | inhibition of S31N mutant ion channel (A/M2 S31N): lack of inhibitory potency
